From patent US12459951B2, “Compounds that interact with RAS superfamily proteins for treatment of cancers, inflammatory diseases, rasopathies, and fibrotic disease” (SHY Therapeutics, LLC, priority 2022, dated 2025)

Assays:
Akt phosphorylation = assay: Akt Phosphorylation Assay (western blot), Panc-1; assay type: cell-based, human; conditions: at 10 μM, * = activation
Outline: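 Panc-1 (KRas G12D) cells were treated with compound at 10 μM final (0.3% DMSO) for 6 h at 37 °C, or with serial dilutions for IC50. Cells were either serum-starved overnight in 0.5% FBS and then stimulated with 1.5 ng/ml EGF for 15 min, or kept in 10% FBS without stimulation. Akt Ser473 phosphorylation in lysates was read by western blot.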

TNF-alpha = TNF-alpha Quantification Assay (ELISA), LPS-stimulated RAW 264.7; assay type: cell-based; conditions: Mus musculus, RAW264.7; at 10 μM; read-out: TNFα: % inh.
IL6 = assay: IL-6 Quantification Assay (ELISA), LPS-stimulated RAW 264.7; assay type: cell-based; design: inhibition: dose or concentration left out as unconfirmed; conditions: Mus musculus, RAW264.7, read-out: IL-6: % inh.
KRas Q61H mutant = assay: Ras GTP Binding Domain Inhibition Assay (Ras Superfamily Assay); conditions: 20 μM compound; for KRas Q61H mutant + SOS: % inh.: with SOS; for KRas Q61H mutant: % inh.: without SOS
Outline: (§1)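 Ni-plate capture of His-tagged protein (10-30 μg/mL, o/n 4° C); cpd 20 μM or dilution series, 1% DMSO, 3 h RT ± Sos 556-1049 last h; 100 nM Cy-labelled GTP 45 min RT; 3× wash; fluorescence read.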

Rac-1 = biological target: T1, Rac-1 (Homo sapiens, UniProt P63000); assay: as above; conditions: read-out: Rac-1: % inh.
T1 construct: made in house
Outline: as §1

Rho-A = biological target: T2, Rho-A (Homo sapiens, UniProt P61586); assay: as above; conditions: read-out: Rho-A: % inh..
T2 construct: made in house
T2 sequence (P61586 whole entry): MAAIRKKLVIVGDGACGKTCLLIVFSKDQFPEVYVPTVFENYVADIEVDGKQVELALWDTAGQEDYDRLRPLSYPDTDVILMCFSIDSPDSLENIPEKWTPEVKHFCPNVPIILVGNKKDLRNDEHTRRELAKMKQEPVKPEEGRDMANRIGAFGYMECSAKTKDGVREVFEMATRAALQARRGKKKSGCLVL
Outline: as §1

| KRas Q61H mutant + SOS: % inh. (KRas Q61H mutant) | KRas Q61H mutant: % inh. (KRas Q61H mutant) | inhibition at 20 µM (Rac-1) [%] | inhibition at 20 µM (Rho-A) [%] | SMILES | % inh of Akt phosphorylation in Panc-1 (Akt phosphorylation) | inhibition at 10 µM (TNF-alpha) [%] | inhibition (IL6) [%] | inhibition at 10 µM (IL6; at 10 μM) [%] |
| --- | --- | --- | --- | --- | --- | --- | --- | --- |
| 0 (0 = 0% inhibition) | 0 (0 = 0% inhibition) | 0 | 0 | CO[C@H]1CC[C@@H](Nc2nc(-c3ccccn3)nn3cc(-c4ccn(C(C)C)n4)c(-c4ccccc4)c23)C1 (racemic) [Compound 24, rac 6-(1-Isopropyl-1H-pyrazol-3-yl)-N-((1R,3S)-3-methoxycyclopentyl)-5-phenyl-2-(pyridin-2-yl)pyrrolo[2,1-f][1,2,4]triazin-4-amine] | A* (1-25% activation) | 25 to 49 | 25 to 49 | – |
| A (A = 1-25% inhibition) | A (A = 1-25% inhibition) | 1 to 25 | 1 to 25 | COCC1CCN(c2nc(-c3ccccn3)nn3cc(-c4ccn(C(C)C)n4)c(-c4ccccc4)c23)C1 (racemic) [Compound 25, rac 6-(1-Isopropyl-1H-pyrazol-3-yl)-4-(3-(methoxymethyl)pyrrolidin-1-yl)-5-phenyl-2-(pyridin-2-yl)pyrrolo[2,1-f][1,2,4]triazine] | D (85-100% inhibition) | 1 to 24 | 1 to 24 | – |
| A (A = 1-25% inhibition) | A (A = 1-25% inhibition) | 0 | 1 to 25 | COC[C@@H]1CC[C@@H]1CNc1nc(-c2ccccn2)nn2cc(-c3ccn(C(C)C)n3)c(-c3ccccc3)c12 (racemic) [Compound 26, rac 6-(1-Isopropyl-1H-pyrazol-3-yl)-N-(((1S,2R)-2-(methoxymethyl)cyclobutyl)methyl)-5-phenyl-2-(pyridin-2-yl)pyrrolo[2,1-f][1,2,4]triazin-4-amine] | C (50-84% inhibition) | 1 to 24 | 50 to 74 | – |
| 0 (0 = 0% inhibition) | A (A = 1-25% inhibition) | 1 to 25 | 1 to 25 | COC1CCCN(c2nc(-c3ccccn3)nn3cc(-c4ccn(C(C)C)n4)c(-c4ccccc4)c23)C1 (racemic) [Compound 27, rac 6-(1-Isopropyl-1H-pyrazol-3-yl)-4-(3-methoxypiperidin-1-yl)-5-phenyl-2-(pyridin-2-yl)pyrrolo[2,1-f][1,2,4]triazine] | A* (1-25% activation) | 25 to 49 | 75 to 100 | – |
| 0 (0 = 0% inhibition) | A (A = 1-25% inhibition) | 0 | 1 to 25 | COc1cccc(-c2cn3nc(-c4nccn4C)nc(N[C@@H]4CC[C@H](OC)C4)c3c2-c2ccccc2)c1Cl (racemic) [Compound 33, rac 6-(2-Chloro-3-methoxyphenyl)-N-((1R,3S)-3-methoxycyclopentyl)-2-(1-methyl-1H-imidazol-2-yl)-5-phenylpyrrolo[2,1-f][1,2,4]triazin-4-amine] | D (85-100% inhibition) | 75 to 100 | – | 75 to 100 |
| A (A = 1-25% inhibition) | A (A = 1-25% inhibition) | 0 | 1 to 25 | CO[C@H]1CC[C@@H](Nc2nc(-c3nccn3C)nn3cc(-c4ccn(C(C)C)n4)c(C(C)C)c23)C1 (racemic) [Compound 36, rac 5-Isopropyl-6-(1-isopropyl-1H-pyrazol-3-yl)-N-((1R,3S)-3-methoxycyclopentyl)-2-(1-methyl-1H-imidazol-2-yl)pyrrolo[2,1-f][1,2,4]triazin-4-amine] | 0 (0% inhibition) | 1 to 24 | 50 to 74 | – |
| B (B = 26-49% inhibition) | B (B = 26-49% inhibition) | 1 to 25 | 1 to 25 | COc1cccc(-c2cn3nc(-c4nccn4C)nc(N[C@@H]4CC[C@@H](OC)C4)c3c2-c2ccccc2)c1F (racemic) [Compound 43, rac 6-(2-Fluoro-3-methoxyphenyl)-N-((1R,3R)-3-methoxycyclopentyl)-2-(1-methyl-1H-imidazol-2-yl)-5-phenylpyrrolo[2,1-f][1,2,4]triazin-4-amine] | B (26-49% inhibition) | 1 to 24 | 25 to 49 | – |
| D (D = 76-100% inhibition) | D (D = 76-100% inhibition) | 50 to 75 | 26 to 49 | COc1cccc(-c2cn3nc(-c4nccn4C)nc(N[C@@H]4CC[C@@H](OC)C4)c3c2-c2ccccn2)c1F (racemic) [Compound 46, rac 6-(2-Fluoro-3-methoxyphenyl)-N-((1R,3R)-3-methoxycyclopentyl)-2-(1-methyl-1H-imidazol-2-yl)-5-(pyridin-2-yl)pyrrolo[2,1-f][1,2,4]triazin-4-amine] | 0 (0% inhibition) | 75 to 100 | 75 to 100 | – |
| 0 (0 = 0% inhibition) | A (A = 1-25% inhibition) | 1 to 25 | 1 to 25 | COc1cccc(Nc2nc(-c3nccn3C)nn3cc(-c4ccn(C(C)C)n4)c(-c4ccccc4)c23)n1 [Compound 23, 6-(1-Isopropyl-1H-pyrazol-3-yl)-N-(6-methoxypyridin-2-yl)-2-(1-methyl-1H-imidazol-2-yl)-5-phenylpyrrolo[2,1-f][1,2,4]triazin-4-amine] | D (85-100% inhibition) | 75 to 100 | 75 to 100 | – |
| A (A = 1-25% inhibition) | A (A = 1-25% inhibition) | 26 to 49 | 1 to 25 | COc1cccc(-c2cn3nc(-c4nccn4C)nc(O)c3c2-c2ccccc2)c1Cl [Compound 28, 6-(2-Chloro-3-methoxyphenyl)-2-(1-methyl-1H-imidazol-2-yl)-5-phenylpyrrolo[2,1-f][1,2,4]triazin-4-ol] | A* (1-25% activation) | 1 to 24 | 25 to 49 | – |
| – | – | 76 to 100 | 76 to 100 | COc1cc(Nc2nc(-c3nccn3C)nn3cc(-c4ccn(C(C)C)n4)c(C)c23)n[nH]1 [Compound 51, 6-(1-Isopropyl-1H-pyrazol-3-yl)-N-(5-methoxy-1H-pyrazol-3-yl)-5-methyl-2-(1-methyl-1H-imidazol-2-yl)pyrrolo[2,1-f][1,2,4]triazin-4-amine] | D* (85-100% activation) | 25 to 49 | 50 to 74 | – |
| – | – | 0 | 0 | Cc1c(-c2ccn(C(C)C)n2)cn2nc(-c3nccn3C)nc(Nc3ccncc3)c12 [Compound 52, 6-(1-Isopropyl-1H-pyrazol-3-yl)-5-methyl-2-(1-methyl-1H-imidazol-2-yl)-N-(pyridin-4-yl)pyrrolo[2,1-f][1,2,4]triazin-4-amine] | B (26-49% inhibition) | 1 to 24 | 0 | – |
| – | – | 1 to 25 | 26 to 49 | COc1ccc(Nc2nc(-c3nccn3C)nn3cc(-c4ccn(C(C)C)n4)c(C)c23)nn1 [Compound 74, 6-(1-Isopropyl-1H-pyrazol-3-yl)-N-(6-methoxypyridazin-3-yl)-5-methyl-2-(1-methyl-1H-imidazol-2-yl)pyrrolo[2,1-f][1,2,4]triazin-4-amine] | D* (85-100% activation) | 1 to 24 | 1 to 24 | – |
| – | – | 0 | – | COc1cccc(-c2cn3nc(-c4nccn4C)nc(N[C@H]4C[C@H](OC)C4)c3c2-c2ccccn2)c1C [Compound 274, 6-(3-Methoxy-2-methylphenyl)-N-((1r,3r)-3-methoxycyclobutyl)-2-(1-methyl-1H-imidazol-2-yl)-5-(pyridin-2-yl)pyrrolo[2,1-f][1,2,4]triazin-4-amine] | D (85-100% inhibition) | 75 to 100 | 75 to 100 | – |
| – | – | 1 to 25 | – | CO[C@H]1C[C@H](Nc2nc(-c3nccn3C)nn3cc(-c4ccn(C)n4)c(C4CC4)c23)C1 [Compound 275, 5-Cyclopropyl-N-((1r,3r)-3-methoxycyclobutyl)-2-(1-methyl-1H-imidazol-2-yl)-6-(1-methyl-1H-pyrazol-3-yl)pyrrolo[2,1-f][1,2,4]triazin-4-amine] | D* (85-100% activation) | 0 | 0 | – |
| – | – | 76 to 100 | – | COc1ccnc(Nc2nc(-c3nccn3C)nn3cc(-c4ccn(C)n4)c(C4CC4)c23)c1 [Compound 276, 5-Cyclopropyl-N-(4-methoxypyridin-2-yl)-2-(1-methyl-1H-imidazol-2-yl)-6-(1-methyl-1H-pyrazol-3-yl)pyrrolo[2,1-f][1,2,4]triazin-4-amine] | D* (85-100% activation) | 0 | 50 to 74 | – |
